Assays:
[1] = molecular target: T1, human orexin 1 receptor (Homo sapiens, UniProt O43613); assay: Calcium accumulation in cells (FLIPR), antagonism of orexin A, human orexin 1 receptor; format: cell-based; settings: for inhibition at 10 µM: measured at a concentration of 10 μM of compound, read-out: FLIPR hOx1R % inhibition; for Ki: calcium accumulation, antagonism of orexin A, Cheng-Prusoff corrected, read-out: FLIPR hOx1R Ki
T1 construct: expressed in transfected cells
T1 sequence (O43613 1-425): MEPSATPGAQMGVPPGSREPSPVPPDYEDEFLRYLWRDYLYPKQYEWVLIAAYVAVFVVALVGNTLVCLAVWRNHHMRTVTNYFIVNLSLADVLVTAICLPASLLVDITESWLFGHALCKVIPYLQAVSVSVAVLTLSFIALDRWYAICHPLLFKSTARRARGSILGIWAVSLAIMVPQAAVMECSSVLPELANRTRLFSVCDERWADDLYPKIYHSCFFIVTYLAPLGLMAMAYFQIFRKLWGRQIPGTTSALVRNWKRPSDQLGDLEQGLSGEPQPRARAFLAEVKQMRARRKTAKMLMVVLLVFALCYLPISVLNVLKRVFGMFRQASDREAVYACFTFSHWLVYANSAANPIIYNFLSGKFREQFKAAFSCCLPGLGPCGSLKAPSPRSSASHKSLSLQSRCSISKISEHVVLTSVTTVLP
Method: (§1) Calcium Accumulation in Cells (FLIPR):
(§2) Cells expressing human orexin 1 or human orexin 2 receptors, were seeded at 8,000 cells/well in 384 well black-walled clear bottom, poly-D-lysine coated plates. After 24 h, the medium was removed and cells were washed once with phosphate buffered saline and serum-deprived overnight in assay buffer (130 mM NaCl, 5.4 mM KCl, 1.8 mM CaCl2, 0.8 mM MgSO4, 0.9 mM NaH2PO4, 25 mM glucose, 20 mM HEPES, pH 7.4) containing bovine serum albumin (1% w/v).
(§3) On the day of the experiment, the cells seeded in black plates were treated with assay buffer containing the Ca^2+ sensitive fluorescent dye Fluo-4-AM (2 μM), and probenecid (0.1 mM). After 1 h plates were washed twice with, and resuspended in, assay buffer containing probenecid (0.1 mM) using a multi plate washer. The plates were placed into a FLIPR II (Fluorometric Imaging Plate Reader, Molecular Devices, Sunnyvale, Calif., USA) and baseline fluorescence (fluorescence light units, FLU) was measured (5 measurements, 2 S each; laser excitation 488 nm at 0.6-1 W, CCD camera exposure 0.4 s) before addition of buffer alone (basal) or containing test compounds (either compound of formula I alone, agonist alone or agonist in the presence of various concentrations of compounds of formula I). Fluorescence measurements were then continued every 1 S for 120 S followed by every 4 S for 240 S.
(§4) The measurements were typically made in two sequences:
(§5) Compounds of formula I were tested usually in a concentration range from 10^−9 M to 10^−5 M.
(§6) In the second round, performed one hour later (to allow for equilibration), Orexin A was tested either in the absence (calibration curves, Orexin A agonist controls) or in the presence of compounds of formula Ito determine antagonism.
(§7) Inhibition data is expressed in Table 1 as Kd [μM], converted by the Cheng and Prusoff correction (Kd=IC50/1+(L/EC50)), where IC50 is the 50% inhibition value determined in concentration response inhibition curves, EC50 is the half maximal activation concentration determined for orexin A in concentration response curves and L is the concentration of orexin A used in inhibition experiments performed in with a submaximal concentration of orexin A in the presence of up to 8 increasing concentrations of compound of formula I. Inhibition data is also expressed in Table 1 as % inhibition value measured at a concentration of 10 μM of selected compounds of formula I.

[2] = molecular target: T2, human orexin 2 receptor (Homo sapiens, UniProt O43614); assay: Calcium accumulation in cells (FLIPR), antagonism of orexin A, human orexin 2 receptor; format: cell-based; settings: for Ki: calcium accumulation, antagonism of orexin A, Cheng-Prusoff corrected, read-out: FLIPR hOx2R Ki; for inhibition at 10 µM: measured at a concentration of 10 μM of compound, read-out: FLIPR hOx2R % inhibition
T2 construct: expressed in transfected cells
T2 sequence (O43614 1-444): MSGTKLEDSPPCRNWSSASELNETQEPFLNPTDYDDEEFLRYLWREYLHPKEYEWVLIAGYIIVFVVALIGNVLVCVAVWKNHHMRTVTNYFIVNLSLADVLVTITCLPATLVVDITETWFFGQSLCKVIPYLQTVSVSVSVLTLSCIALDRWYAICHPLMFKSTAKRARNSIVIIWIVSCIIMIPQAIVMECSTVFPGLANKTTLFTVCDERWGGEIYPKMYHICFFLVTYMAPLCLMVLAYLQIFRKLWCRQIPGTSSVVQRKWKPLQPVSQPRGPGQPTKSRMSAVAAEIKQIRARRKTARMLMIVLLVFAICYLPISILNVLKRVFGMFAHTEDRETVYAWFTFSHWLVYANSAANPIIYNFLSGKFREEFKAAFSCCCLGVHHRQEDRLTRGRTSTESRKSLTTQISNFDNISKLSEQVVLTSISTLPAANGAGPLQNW
Method: as §1, §2, §3, §4, §5, §6, §7

| Compound | inhibition at 10 µM [1] [%] | Ki [2] [nM] | Ki [1] [nM] | inhibition at 10 µM [2] [%] |
| --- | --- | --- | --- | --- |
| COCc1cccc(-c2oc(C)nc2CN2CCNC3(CCN(c4nc(C)cc(C#N)n4)CC3)C2=O)c1 [Example 1.31, 2-(4-((5-(3-(Methoxymethyl)phenyl)-2-methyl-oxazol-4-yl)methyl)-5-oxo-1,4,9-triazaspiro[5.5]undecan-9-yl)-6-methylpyrimidine-4-carbonitrile] | 38 | 64 | – | – |
| COCc1cccc(-c2oc(C)nc2CN2CCNC3(CCN(c4nc(C)cc(OC)n4)CC3)C2=O)c1 [Example 1.32, 9-(4-Methoxy-6-methylpyrimidin-2-yl)-4-((5-(3-(methoxymethyl)phenyl)-2-methyl-oxazol-4-yl)methyl)-1,4,9-triazaspiro[5.5] undecan-5-one] | – | 84 | 2840 | – |
| COc1ccc(-c2cn(C)nc2CN2CCNC3(CCN(c4nc(C)cc(C)n4)CC3)C2=O)cc1OC [Example 1.35, 4-((4-(3,4-Dimethoxyphenyl)-1-methyl-1H-pyrazol-3-yl)methyl)-9-(4,6-dimethylpyrimidin-2-yl)-1,4,9-triazaspiro[5.5] undecan-5-one] | 25 | 400 | – | – |
| COc1ccc(-c2cn(C)nc2CN2CCNC3(CCN(c4nc(C)cc(C)n4)CC3)C2=O)cc1 [Example 1.36, 9-(4,6-Dimethyl-pyrimidin-2-yl)-4-((4-(4-methoxyphenyl)-1-methyl-1H-pyrazol-3-yl)methyl)-1,4,9-triazaspiro[5.5] undecan-5-one] | 41 | 187 | – | – |
| COc1cc(OC)cc(-c2cn(C)nc2CN2CCNC3(CCN(c4nc(C)cc(C)n4)CC3)C2=O)c1 [Example 1.37, 4-((4-(3,5-Dimethoxyphenyl)-1-methyl-1H-pyrazol-3-yl)methyl)-9-(4,6-dimethylpyrimidin-2-yl)-1,4,9-triazaspiro[5.5] undecan-5-one] | 40 | 2330 | – | – |
| Cc1cccc(-c2cn(C)nc2CN2CCNC3(CCN(c4nc(C)cc(C)n4)CC3)C2=O)c1 [Example 1.38, 9-(4,6-Dimethyl-pyrimidin-2-yl)-4-((1-methyl-4-(m-tolyl)-1H-pyrazol-3-yl)methyl)-1,4,9-triazaspiro[5.5] undecan-5-one] | 29 | 204 | – | – |
| Cc1cc(C)nc(N2CCC3(CC2)NCCN(Cc2nn(C)cc2-c2cccc(F)c2)C3=O)n1 [Example 1.43, 9-(4,6-Dimethyl-pyrimidin-2-yl)-4-((4-(3-fluorophenyl)-1-methyl-1H-pyrazol-3-yl)methyl)-1,4,9-triazaspiro[5.5] undecan-5-one] | 27 | 447 | – | – |
| Cc1cc(C)nc(N2CCC3(CC2)NCCN(Cc2nn(C)cc2-c2cccc(C#N)c2)C3=O)n1 [Example 1.44, 3-(3-((9-(4,6-Dimethylpyrimidin-2-yl)-5-oxo-1,4,9-triazaspiro[5.5]undecan-4-yl)methyl)-1-methyl-1H-pyrazol-4-yl)benzonitrile] | 12 | 1490 | – | – |
| Cc1cc(C)nc(N2CCC3(CC2)NCCN(Cc2nn(C)cc2-c2ccc(C#N)cc2)C3=O)n1 [Example 1.45, 4-(3-((9-(4,6-Dimethylpyrimidin-2-yl)-5-oxo-1,4,9-triazaspiro[5.5]undecan-4-yl)methyl)-1-methyl-1H-pyrazol-4-yl)benzonitrile] | 21 | – | – | 45 |
| CNC(=O)c1cccc(-c2cn(C)nc2CN2CCNC3(CCN(c4nc(C)cc(C)n4)CC3)C2=O)c1 [Example 1.49, 3-(3-((9-(4,6-Dimethylpyrimidin-2-yl)-5-oxo-1,4,9-triazaspiro[5.5]undecan-4-yl)methyl)-1-methyl-1H-pyrazol-4-yl)-N-methylbenzamide] | 20 | – | – | 38 |
| Cc1cc(C)nc(N2CCC3(CC2)NCCN(Cc2n[nH]c4ccccc24)C3=O)n1 [Example 1.50, 4-((1H-Indazol-3-yl)methyl)-9-(4,6-dimethylpyrimidin-2-yl)-1,4,9-triazaspiro[5.5] undecan-5-one] | – | 86 | 1180 | – |
| COCc1ccc(-c2cn(C)nc2CN2CCNC3(CCN(c4nc(C)cc(C)n4)CC3)C2=O)cc1 [Example 1.51, 9-(4,6-Dimethyl-pyrimidin-2-yl)-4-((4-(4-(methoxymethyl)phenyl)-1-methyl-1H-pyrazol-3-yl)methyl)-1,4,9-triazaspiro[5.5] undecan-5-one] | < 10 | 1240 | – | – |
| COc1cccc(-c2cn(C)nc2CN2CCNC3(CCN(c4nc(C)cc(C)n4)CC3)C2=O)n1 [Example 1.54, 9-(4,6-Dimethyl-pyrimidin-2-yl)-4-((4-(6-methoxypyridin-2-yl)-1-methyl-1H-pyrazol-3-yl)methyl)-1,4,9-triazaspiro[5.5] undecan-5-one] | 15 | – | – | 32 |
| Cc1cc(C)nc(N2CCC3(CC2)NCCN(Cc2nn(C)cc2-c2cccc(-n4cccn4)c2)C3=O)n1 [Example 1.57, 4-((4-(3-(1H-Pyrazol-1-yl)phenyl)-1-methyl-1H-pyrazol-3-yl)methyl)-9-(4,6-dimethyl-pyrimidin-2-yl)-1,4,9-triazaspiro[5.5] undecan-5-one] | – | 175 | 2670 | – |
| Cc1cc(C)nc(N2CCC3(CC2)NCCN(Cc2nn(C)cc2-c2cccc(N(C)C)c2)C3=O)n1 [Example 1.58] | 17 | 458 | – | – |
| Cc1cc(C)nc(N2CCC3(CC2)NCCN(Cc2nn(C)cc2-c2cccc(-c4nnc(C)o4)c2)C3=O)n1 [Example 1.59, 9-(4,6-Dimethyl-pyrimidin-2-yl)-4-((1-methyl-4-(3-(5-methyl-1,3,4-oxadiazol-2-yl)phenyl)-1H-pyrazol-3-yl)methyl)-1,4,9-triazaspiro[5.5] undecan-5-one] | 37 | 252 | – | – |
| Cc1cc(C)nc(N2CCC3(CC2)NCCN(Cc2nn(C)cc2-c2cccc(-n4nc(C)cc4C)c2)C3=O)n1 [Example 1.60, 4-((4-(3-(3,5-Dimethyl-1H-pyrazol-1-yl)phenyl)-1-methyl-1H-pyrazol-3-yl)methyl)-9-(4,6-dimethylpyrimidin-2-yl)-1,4,9-triazaspiro[5.5] undecan-5-one] | 13 | – | – | 34 |
| Cc1cc(C)nc(N2CCC3(CC2)NCCN(Cc2nn(C)cc2-c2ccc4c(c2)OCCO4)C3=O)n1 [Example 1.61, 4-((4-(2,3-Dihydro-benzo[b][1,4]dioxin-6-yl)-1-methyl-1H-pyrazol-3-yl)methyl)-9-(4,6-dimethylpyrimidin-2-yl)-1,4,9-triazaspiro[5.5] undecan-5-one] | – | 1.8 | 836 | – |
| Cc1cc(C)nc(N2CCC3(CC2)NCCN(Cc2ccccc2-c2ncc(C)o2)C3=O)n1 [Example 1.64, 9-(4,6-dimethyl-pyrimidin-2-yl)-4-(2-(5-methyloxazol-2-yl)benzyl)-1,4,9-triazaspiro[5.5] undecan-5-one] | 32 | 423 | – | – |
